doi:10.1101/2023.01.11.523589v2 (biorxiv, 2023)

How the values were obtained:
HiBIT-WDR5 [1] = biological target: T1, HiBIT-WDR5 (Homo sapiens, UniProt P61964); assay: cell-based; design: species or system HEK293T HiBIT-WDR5; conditions: HEK-293T, read-out: CETSA thermal shifts [°C]
HiBIT-WDR5 [2] = biological target: T1, HiBIT-WDR5; assay: cell-based; design: species or system HEK293T HiBIT-WDR5; conditions: HEK-293T, read-out: Dmax (23-24h) at 7.5 µM in %
[3] = biological target: HiBIT-WDR5 (HiBIT-tagged full length WDR5) (Homo sapiens, UniProt P61964); assay: in vitro NanoBRET tracer displacement; type: binding

Structure (SMILES) | ΔTm at 10 µM (HiBIT-WDR5 [1]) | Dmax at 7.5 µM (HiBIT-WDR5 [2]) | IC50 [3]
Cc1ncsc1-c1ccc([C@H](C)NC(=O)[C@H]2C[C@H](O)CN2C(=O)[C@@H](NC(=O)CNC(=O)c2ccc(F)c(-c3ccc(N4C[C@@H](C)N(C)[C@@H](C)C4)c(NC(=O)c4c[nH]c(=O)cc4C(F)(F)F)c3)c2)C(C)(C)C)cc1 [MS67N] | 11.6 °C | – | –
Cc1ncsc1-c1ccc([C@H](C)NC(=O)[C@@H]2C[C@@H](O)CN2C(=O)[C@@H](NC(=O)CNC(=O)c2ccc(F)c(-c3ccc(N4C[C@@H](C)N(C)[C@@H](C)C4)c(NC(=O)c4c[nH]c(=O)cc4C(F)(F)F)c3)c2)C(C)(C)C)cc1 [MS67] | 13.8 °C | 69 ± 4% | –
CC(=O)N[C@H](C(=O)N1C[C@H](O)C[C@H]1C(=O)NCc1ccc(-c2scnc2C)cc1)C(C)(C)C [VH032, reference compound] | – | – | > 3 µM
CC(=O)N[C@H](C(=O)N1C[C@H](O)C[C@H]1C(=O)NCc1ccc(-c2scnc2C)cc1)C(C)(C)C [VH032] | 2.6 °C | – | –
